Values of other authors as cited in patent US20240023554A1, “MICROPARTICLE COMPOSITIONS COMPRISING TRIFLUDIMOXAZIN” (BASF SE, priority 2020, published 2024).

Conditions: background statement

In the case of C#CCN1C(=O)C(F)(F)Oc2cc(F)c(-n3c(=O)n(C)c(=S)n(C)c3=O)cc21 [Trifludimoxazin, 1,5-dimethyl-6-thioxo-3-[2,2,7-trifluoro-3-oxo-4-(prop-2-yn-1-yl)-3,4-dihydro-2H-1,4-benzoxazin-6-yl]-1,3,5-triazinane-2,4-dione], the solubility in water is listed as “only sparingly soluble in water”.
